Measured values: article PMC10892984, “Novel Antineoplastic Inducers of Mitochondrial Apoptosis in Human Cancer Cells” (Molecules, 2024)

Experiments:
DU-145 cells = test: Cytochrome c assay (mitochondrial and cytosolic), ELISA; assay type: cell-based, human
Method: (§1) Cell numbers of 2 × 10^6 PC-3 and DU-145 cells were seeded into a […]. […] The protein content for each fraction was calculated to determine the mass content of cytochrome c in each fraction (pg cytochrome c/mg total protein). The mass content of cytochrome c (pg cytochrome c/mg total protein) was normalized towards the corresponding blank DMSO control and is given in percent (%) of blank DMSO control.

PC-3 cells = test: as above; assay type: cell-based, human; details: 25 µM
Method: as §1

[1] = Homo sapiens, 48 h, read-out: LC50

Question: Which TGI (COLO 205; COLO 205, colon cancer, mutant p53, 48 h) does the source give for `c1cc(CNC23CC4CC(CC(C4)C2)C3)cc(C[N+](Cc2cccc(CNC34CC5CC(CC(C5)C3)C4)c2)(Cc2cccc(CNC34CC5CC(CC(C5)C3)C4)c2)Cc2cccc(CNC34CC5CC(CC(C5)C3)C4)c2)c1` (centres unmarked) [Compound 1, tetrakis{3-[(tricyclo[3.3.1.1^3,7]decan-1-ammonio)methyl]benzyl}ammonium pentachloride] here?
Answer: Its TGI is 3.13 µM.

Question: And the GI50 (COLO 205; Homo sapiens, COLO 205, 48 h)?
Answer: Its GI50 is 1.09 µM.

Question: And the CC50 (COLO 205; Homo sapiens, COLO 205, 48 h, read-out: LC50)?
Answer: The CC50 was 24.8 µM.

Question: What about the TGI (HT29; HT29, colon cancer, mutant p53, 48 h) of the same compound?
Answer: The TGI was 2.82 µM.

Question: And the GI50 (HT29; Homo sapiens, HT-29, 48 h)?
Answer: The GI50 was 0.857 µM.

Question: And the CC50 (HT29; Homo sapiens, HT-29, 48 h, read-out: LC50)?
Answer: The CC50 was 14.6 µM.

Question: And the GI50 (ACHN; Homo sapiens, 48 h)?
Answer: Its GI50 is 0.874 µM.

Question: What about the CC50 (ACHN; [1]) of the same compound?
Answer: The CC50 was 5.55 µM.

Question: What about the TGI (ACHN; renal cancer, wild-type p53, 48 h) of the same compound?
Answer: Its TGI is 2.14 µM.

Question: What about the GI50 (CCRF-CEM; Homo sapiens, 48 h) of the same compound?
Answer: The GI50 was 1.46 µM.

Question: And the CC50 (CCRF-CEM; [1])?
Answer: Its CC50 is over 50 µM.

Question: And the TGI (CCRF-CEM; leukemia, mutant p53, 48 h)?
Answer: Its TGI is over 50 µM.

Question: What about the GI50 (RXF 393; Homo sapiens, RXF 393, 48 h) of the same compound?
Answer: The GI50 was 0.811 µM.

Question: And the CC50 (RXF 393; Homo sapiens, RXF 393, 48 h, read-out: LC50)?
Answer: The CC50 was 3.02 µM.

Question: And the TGI (RXF 393; RXF 393, renal cancer, mutant p53, 48 h)?
Answer: The TGI was 1.56 µM.

Question: What about the GI50 (MCF7; Homo sapiens, MCF7, 48 h) of the same compound?
Answer: Its GI50 is 1.07 µM.

Question: What about the CC50 (MCF7; Homo sapiens, MCF7, 48 h, read-out: LC50) of the same compound?
Answer: Its CC50 is 45.8 µM.

Question: What about the TGI (MCF7; MCF7, breast cancer, wild-type p53, 48 h) of the same compound?
Answer: The TGI was 6.19 µM.

Question: What about the “toxicity for the cell line” value (DU-145 cells; 25 µM, 50 µM and 75 µM, 48 h post-treatment) of the same compound?
Answer: Its value is “highly toxic”.

Question: And the “cell death with depletion of cytosolic cytochrome c” value (DU-145 cells; 25.0 µM, 48 h)?
Answer: Its value is “induced complete cell death”.

Question: And the “concentration at which cytochrome c translocation from mitochondria into the cytosol was readily induced” value (DU-145 cells; 48 h, tested 500 nM, 1 µM, 5 µM, 25 µM)?
Answer: Its value is 5.0 µM.

Question: What about the “toxicity for the cell line” value (PC-3 cells; 50 µM and 75 µM, 48 h post-treatment) of the same compound?
Answer: The value was “highly toxic”.

Question: And the “concentration at which cytochrome c translocation from mitochondria into the cytosol was readily induced” value (PC-3 cells; 48 h, tested 500 nM, 1 µM, 5 µM)?
Answer: Its value is 25.0 µM.

Question: And the GI50 (OVCAR-5; Homo sapiens, OVCAR-5, 48 h)?
Answer: The GI50 was 0.977 µM.

Question: And the CC50 (OVCAR-5; Homo sapiens, OVCAR-5, 48 h, read-out: LC50)?
Answer: Its CC50 is 10.8 µM.

Question: And the TGI (OVCAR-5; OVCAR-5, ovarian cancer, p53 Lit. inconclusive, 48 h)?
Answer: Its TGI is 2.76 µM.

Question: What about the GI50 (RPMI-8226; Homo sapiens, RPMI-8226, 48 h) of the same compound?
Answer: The GI50 was 1.32 µM.

Question: What about the CC50 (RPMI-8226; Homo sapiens, RPMI-8226, 48 h, read-out: LC50) of the same compound?
Answer: The CC50 was over 50 µM.

Question: What about the TGI (RPMI-8226; RPMI-8226, leukemia, mutant p53, 48 h) of the same compound?
Answer: Its TGI is 3.99 µM.

Question: And the GI50 (LOX IMVI; Homo sapiens, 48 h)?
Answer: The GI50 was 0.505 µM.

Question: What about the CC50 (LOX IMVI; [1]) of the same compound?
Answer: Its CC50 is 3.18 µM.

Question: What about the TGI (LOX IMVI; melanoma, wild-type p53, 48 h) of the same compound?
Answer: Its TGI is 1.27 µM.

Question: And the TGI (786-0; 786-0, renal cancer, mutant p53, 48 h)?
Answer: The TGI was 1.85 µM.

Question: What about the GI50 (786-0; Homo sapiens, 786-0, 48 h) of the same compound?
Answer: The GI50 was 0.848 µM.

Question: And the CC50 (786-0; Homo sapiens, 786-0, 48 h, read-out: LC50)?
Answer: The CC50 was 4.05 µM.

Question: And the TGI (A549; A549, non-small-cell lung cancer, wild-type p53, 48 h)?
Answer: The TGI was 8.70 µM.

Question: And the GI50 (A549; Homo sapiens, A549, 48 h)?
Answer: The GI50 was 2.13 µM.

Question: And the CC50 (A549; Homo sapiens, A549, 48 h, read-out: LC50)?
Answer: Its CC50 is 24.2 µM.

Question: What about the GI50 (UACC-257; Homo sapiens, UACC-257, 48 h) of the same compound?
Answer: The GI50 was 3.08 µM.

Question: What about the CC50 (UACC-257; Homo sapiens, UACC-257, 48 h, read-out: LC50) of the same compound?
Answer: The CC50 was 29.4 µM.

Question: What about the TGI (UACC-257; UACC-257, melanoma, wild-type p53, 48 h) of the same compound?
Answer: The TGI was 10.8 µM.

Question: What about the GI50 (PC-3; Homo sapiens, PC-3, 48 h) of the same compound?
Answer: The GI50 was 1.4 µM.

Question: And the CC50 (PC-3; Homo sapiens, PC-3, 48 h, read-out: LC50)?
Answer: The CC50 was 21.4 µM.

Question: What about the TGI (PC-3; PC-3, prostate cancer, mutant p53 (null p53 protein), 48 h) of the same compound?
Answer: Its TGI is 5.17 µM.

Question: And the GI50 (SNB-19; Homo sapiens, SNB-19, 48 h)?
Answer: Its GI50 is 1.92 µM.

Question: And the CC50 (SNB-19; Homo sapiens, SNB-19, 48 h, read-out: LC50)?
Answer: Its CC50 is 19.9 µM.

Question: What about the TGI (SNB-19; SNB-19, CNS cancer (brain tumor), mutant p53, 48 h) of the same compound?
Answer: The TGI was 7.27 µM.

Question: And the GI50 (OVCAR-3; Homo sapiens, OVCAR-3, 48 h)?
Answer: Its GI50 is 1.04 µM.

Question: And the CC50 (OVCAR-3; Homo sapiens, OVCAR-3, 48 h, read-out: LC50)?
Answer: The CC50 was 9.97 µM.

Question: And the TGI (OVCAR-3; OVCAR-3, ovarian cancer, mutant p53, 48 h)?
Answer: The TGI was 2.82 µM.

Question: And the GI50 (SK-MEL-5; Homo sapiens, SK-MEL-5, 48 h)?
Answer: The GI50 was 1.52 µM.

Question: And the CC50 (SK-MEL-5; Homo sapiens, SK-MEL-5, 48 h, read-out: LC50)?
Answer: Its CC50 is 18.6 µM.

Question: And the TGI (SK-MEL-5; SK-MEL-5, melanoma, wild-type p53, 48 h)?
Answer: The TGI was 6.28 µM.

Question: What about the TGI (HCT-15; HCT-15, colon cancer, mutant p53, 48 h) of the same compound?
Answer: Its TGI is 3.91 µM.

Question: What about the GI50 (HCT-15; Homo sapiens, HCT-15, 48 h) of the same compound?
Answer: Its GI50 is 1.1 µM.

Question: What about the CC50 (HCT-15; Homo sapiens, HCT-15, 48 h, read-out: LC50) of the same compound?
Answer: Its CC50 is 18.4 µM.

Question: What about the GI50 (OVCAR-8; Homo sapiens, OVCAR-8, 48 h) of the same compound?
Answer: The GI50 was 2.07 µM.

Question: What about the CC50 (OVCAR-8; Homo sapiens, OVCAR-8, 48 h, read-out: LC50) of the same compound?
Answer: The CC50 was 35.3 µM.

Question: What about the TGI (OVCAR-8; OVCAR-8, ovarian cancer, mutant p53, 48 h) of the same compound?
Answer: Its TGI is 8.48 µM.

Question: And the GI50 (SK-OV-3; Homo sapiens, SK-OV-3, 48 h)?
Answer: The GI50 was 5.11 µM.

Question: And the CC50 (SK-OV-3; Homo sapiens, SK-OV-3, 48 h, read-out: LC50)?
Answer: The CC50 was 25.5 µM.

Question: And the TGI (SK-OV-3; SK-OV-3, ovarian cancer, no p53 protein expressed, 48 h)?
Answer: The TGI was 11.4 µM.

Question: And the GI50 (SF-539; Homo sapiens, SF-539, 48 h)?
Answer: Its GI50 is 1.01 µM.

Question: And the CC50 (SF-539; Homo sapiens, SF-539, 48 h, read-out: LC50)?
Answer: The CC50 was 7.59 µM.

Question: And the TGI (SF-539; SF-539, CNS cancer (brain tumor), mutant p53, 48 h)?
Answer: The TGI was 2.48 µM.

Question: And the GI50 (SK-MEL-2; Homo sapiens, SK-MEL-2, 48 h)?
Answer: Its GI50 is 1.06 µM.

Question: And the CC50 (SK-MEL-2; Homo sapiens, SK-MEL-2, 48 h, read-out: LC50)?
Answer: The CC50 was 15.6 µM.

Question: What about the TGI (SK-MEL-2; SK-MEL-2, melanoma, mutant p53, 48 h) of the same compound?
Answer: The TGI was 3.20 µM.

Question: And the TGI (DU-145; DU-145, prostate cancer, mutant p53, 48 h)?
Answer: The TGI was 4.61 µM.

Question: What about the GI50 (DU-145; Homo sapiens, DU-145, 48 h) of the same compound?
Answer: Its GI50 is 1.47 µM.

Question: What about the CC50 (DU-145; Homo sapiens, DU-145, 48 h, read-out: LC50) of the same compound?
Answer: The CC50 was 15.2 µM.

Question: And the TGI (CAKI-1; CAKI-1, renal cancer, wild-type p53, 48 h)?
Answer: Its TGI is 4.70 µM.

Question: What about the GI50 (CAKI-1; Homo sapiens, CAKI-1, 48 h) of the same compound?
Answer: Its GI50 is 1.28 µM.

Question: And the CC50 (CAKI-1; Homo sapiens, CAKI-1, 48 h, read-out: LC50)?
Answer: The CC50 was 15.4 µM.

Question: What about the GI50 (MDA-MB-468; Homo sapiens, MDA-MB-468, 48 h) of the same compound?
Answer: Its GI50 is 0.797 µM.

Question: What about the CC50 (MDA-MB-468; Homo sapiens, MDA-MB-468, 48 h, read-out: LC50) of the same compound?
Answer: Its CC50 is 3.55 µM.

Question: And the TGI (MDA-MB-468; MDA-MB-468, breast cancer, mutant p53, 48 h)?
Answer: Its TGI is 1.68 µM.
